Test results published in US6784201B2, “Benzothiepines having activity as inhibitors of ileal bile acid transport and taurocholate uptake” (G.D. Searle & Company, priority 1994, dated 2004).

biological target: T1, human IBAT (Homo sapiens, UniProt Q12908); test: In vitro assay of IBAT-mediated uptake of [14C]-taurocholate (TC) in H14 cells; assay type: cell-based; settings: read-out: Human TC IC50
T1 construct: expressed in transfected cells; host or cells: Baby hamster kidney (BHK) cells, clone H14
T1 sequence (Q12908 1-348): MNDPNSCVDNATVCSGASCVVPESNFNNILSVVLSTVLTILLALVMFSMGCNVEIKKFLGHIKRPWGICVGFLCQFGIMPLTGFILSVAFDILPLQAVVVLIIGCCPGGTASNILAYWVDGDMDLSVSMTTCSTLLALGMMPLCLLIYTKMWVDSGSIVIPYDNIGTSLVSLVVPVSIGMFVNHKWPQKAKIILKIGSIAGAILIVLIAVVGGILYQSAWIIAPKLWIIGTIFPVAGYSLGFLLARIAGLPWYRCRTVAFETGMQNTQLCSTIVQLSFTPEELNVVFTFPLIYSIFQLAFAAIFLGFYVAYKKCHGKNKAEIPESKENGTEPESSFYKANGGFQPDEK
How it was run: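 BHK cells stably expressing human IBAT (H14) were incubated 2 h at 37° C with compound and 3 μM final [14C]-taurocholate in DMEM (4.5 g/L glucose) plus 0.2% fatty acid-free BSA. After cold PBS washes, cell-associated radioactivity was measured by scintillation counting.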

Row | Structure (SMILES) | IC50
1 | CCCCC1(CCCC)CS(=O)(=O)c2ccc(NC)cc2C(c2cccc(OCCOCCOCC[n+]3ccccc3CCN3CCCCC3)c2)C1O (stereo not shown) [Example 1064] | 4 nM
2 | CCCCC1(CCCC)CS(=O)(=O)c2ccc(N(C)C)cc2C(c2cccc(OCCOCCOCC[N+](CCOCCOC)(CCOCCOC)CCOCCOC)c2)C1O (stereo not shown) [Example 1065] | 4 nM
3 | CCCCC1(CCCC)CS(=O)(=O)c2ccc(N(C)C)cc2C(c2cccc(OCCOCCOCC[n+]3cc4ccccc4c4ccccc43)c2)C1O (stereo not shown) [Example 1066] | 4 nM
4 | CCCCC1(CCCC)CS(=O)(=O)c2ccc(N(C)C)cc2C(c2cccc(OCCOCCOCC[n+]3ccccc3)c2)C1O (stereo not shown) [Example 1068] | 4 nM
5 | CCCCC1(CCCC)CS(=O)(=O)c2c(cc(N(C)C)cc2N(C)C)C(c2ccccc2)C1O (stereo not shown) [Example 1069] | 4 nM
6 | CCCCC1(CCCC)CS(=O)(=O)c2ccc(N(C)C)cc2C(c2ccc(OCCOCC[n+]3ccn(CC)c3)c(F)c2)C1O (stereo not shown) [Example 1070] | 4 nM
7 | CCCCC1(CCCC)CS(=O)(=O)c2ccc(N(C)C)cc2C(c2cccc(OCCOCCOCC[N+](CC)(CC)CCN(C)P(C)(=O)c3ccccc3)c2)C1O (stereo not shown) [Example 1071] | 4 nM
8 | CCCCC1(CCCC)CS(=O)(=O)c2ccc(N(C)C)cc2C(c2cccc(OCCOCCOCC[n+]3ccc(CO)cc3)c2)C1O (stereo not shown) [Example 1072] | 4 nM
9 | CCCCC1(CCCC)CS(=O)(=O)c2ccc(N(C)C)cc2C(c2ccc(OCCOCC[N+]34CCN(CC3)CC4)c(F)c2)C1O (stereo not shown) [Example 1073] | 4 nM
10 | CCCCC1(CC)CS(=O)(=O)c2ccc(N(C)C)cc2C(c2ccc(OC)c(F)c2)C1O (stereo not shown) [Example 1074] | 4 nM
11 | CCCCC1(CCCC)CS(=O)(=O)c2c(cc(N(C)C)cc2N(C)C)C(c2ccc(F)cc2)C1O (stereo not shown) [Example 1075] | 4.3 nM
12 | CCCCC1(CCCC)CS(=O)(=O)c2ccc(N(C)C)cc2C(c2ccc(OCCOCCOCC[N+](C)(C)C)cc2)C1O (stereo not shown) [Example 1076] | 4.5 nM
13 | CCCCC1(CCCC)CS(=O)(=O)c2ccc(N(C)C)cc2C(c2cccc(CO)c2)C1O (stereo not shown) [Example 1077] | 4.5 nM
14 | CCCCC1(CC)CS(=O)(=O)c2ccc(N(C)C)cc2C(c2cccc(OCCOCCOCC[N+](C)(C)CCCCCC[N+](C)(C)CCOCCOCCOc3cccc(C4c5cc(N(C)C)ccc5S(=O)(=O)CC(CC)(CCCC)C4O)c3)c2)C1O (stereo not shown) [Example 1079] | 5 nM
15 | CCCCC1(CCCC)CS(=O)(=O)c2ccc(N(C)C)cc2C(c2cccc(OCCOCCOCC[N+](CC)(CC)CCN(C)S(=O)(=O)c3ccccc3)c2)C1O (stereo not shown) [Example 1080] | 5 nM
16 | CCCCC1(CCCC)CS(=O)(=O)c2ccc(N(C)C)cc2C(c2cccc(OCCOCCOCC[N+](CC)(CC)CC(C)=O)c2)C1O (stereo not shown) [Example 1081] | 5 nM
17 | CCCCC1(CCCC)CS(=O)(=O)c2ccc(N(C)C)cc2C(c2ccccn2)C1O (stereo not shown) [Example 1082] | 5 nM
18 | CCCCC1(CCCC)CS(=O)(=O)c2ccc(N(C)C)cc2C(c2cccc(OCCOCCOCC[n+]3ccccc3C)c2)C1O (stereo not shown) [Example 1083] | 5 nM
19 | CCCCC1(CCCC)CS(=O)(=O)c2ccc(N(C)C)cc2C(c2cccc(OCCOCCOCC[n+]3ccc(CC)cc3)c2)C1O (stereo not shown) [Example 1084] | 5 nM
20 | CCCCC1(CCCC)CS(=O)(=O)c2ccc(N(C)C)cc2C(c2ccsc2)C1O (stereo not shown) [Example 1085] | 5 nM
21 | CCCCC1(CCCC)CS(=O)(=O)c2ccc(N(C)C)cc2C(c2cccc(OCCOCCOCC[N+](C)(C)CCN(CC)C(=O)c3ccccc3)c2)C1O (stereo not shown) [Example 1086] | 5 nM

Row | Structure (SMILES) | IC50
22 | CCCCC1(CCCC)CS(=O)(=O)c2ccc(N(C)C)cc2C(c2cccc(OCC[N+](CC)(CC)CC)c2)C1O (stereo not shown) [Example 1087] | 5 nM
23 | CCCCC1(CC)CS(=O)(=O)c2ccc(N(C)C)cc2C(c2ccc3c(c2)OCO3)C1O (stereo not shown) [Example 1088] | 5.5 nM
24 | CCCCC1(CC)CS(=O)(=O)c2ccc(N(C)C)cc2C(c2ccc(OC)cc2)C1O (stereo not shown) [Example 1089] | 5.7 nM
25 | CCCCC1(CCCC)CS(=O)(=O)c2ccc(N(C)C)cc2C(c2cccc(OCCOCCOCC[n+]3cccc4ccccc43)c2)C1O (stereo not shown) [Example 1090] | 6 nM
26 | CCCCC1(CCCC)CS(=O)(=O)c2ccc(N(C)C)cc2C(c2cccc(OCCOCCOCC[N+](C)(C3CCCCC3)C3CCCCC3)c2)C1O (stereo not shown) [Example 1091] | 6 nM
27 | CCCCC1(CCCC)CS(=O)(=O)c2ccc(N(C)C)cc2C(c2cccc(OCCOCCOCC[N+](C)(C)c3ccccc3)c2)C1O (stereo not shown) [Example 1092] | 6 nM
28 | CCCCC1(CCCC)CS(=O)(=O)c2ccc(N(C)C)cc2C(c2cccc(OCCOCCOCC[N+](C)(C)CC(=O)OCC)c2)C1O (stereo not shown) [Example 1093] | 6 nM
29 | CCCCC1(CCCC)CS(=O)(=O)c2ccc(N(C)C)cc2C(c2cccc(OCCOCCOCC[n+]3cccc(C(=O)OC)c3)c2)C1O (stereo not shown) [Example 1094] | 6 nM
30 | CCCCC1(CCCC)CS(=O)(=O)c2ccc(N(C)C)cc2C(c2cccc(OCCOCCOCC[N+]34CCN(CC3)CC4)c2)C1O (stereo not shown) [Example 1095] | 6 nM
31 | CCCCC1(CCCC)CS(=O)(=O)c2ccc(N(C)C)cc2C(c2cccc(OCCOCCOCC[n+]3ccc(C)cc3)c2)C1O (stereo not shown) [Example 1096] | 6 nM
32 | CCCCC1(CCCC)CS(=O)(=O)c2ccc(N(C)C)cc2C(c2cccc(NC(=O)CCBr)c2)C1O (stereo not shown) [Example 1097] | 6 nM
33 | CCCCC1(CC)CS(=O)(=O)c2ccc(N(C)C)cc2C(c2ccc(OC)cc2)C1O (stereo not shown) [Example 1099] | 6.3 nM
34 | CCCCC1(CCCC)CS(=O)(=O)c2ccc(N(C)C)cc2C(c2ccc(OC)cc2)C1O (stereo not shown) [Example 1100] | 6.8 nM
35 | CCCCC1(CCCC)CS(=O)(=O)c2ccc(N(C)C)cc2C(c2ccc(OCCOCC[n+]3ccc(N(C)C)cc3)c(F)c2)C1O (stereo not shown) [Example 1101] | 7 nM
36 | CCCCC1(CCCC)CS(=O)(=O)c2ccc(N(C)C)cc2C(c2ccc(OCCOCCOCC[N+](C)(C)CC[N+](C)(C)C)cc2)C1O (stereo not shown) [Example 1103] | 7 nM
37 | CCCCC1(CCCC)CS(=O)(=O)c2ccc(N(C)C)cc2C(c2cccc(OCCOCCOCC[N+]3=C4CCCCCN4CCC3)c2)C1O (stereo not shown) [Example 1104] | 7 nM
38 | CCCCC1(CCCC)CS(=O)(=O)c2ccc(N(C)C)cc2C(c2cccc(O)c2)C1O (stereo not shown) [Example 1106] | 7.3 nM
39 | CCCCC1(CCCC)CS(=O)(=O)c2ccc(N(C)C)cc2C(c2cccc(C[n+]3ccccc3)c2)C1O (stereo not shown) [Example 1107] | 7.5 nM
40 | CCCCC1(CCCC)CS(=O)(=O)c2ccc(N(C)C)cc2C(c2cccnc2)C1O (stereo not shown) [Example 1108] | 7.5 nM
41 | CCCCC1(CCCC)CS(=O)(=O)c2ccc(N(C)C)cc2C(c2ccc(OCc3ccccn3)c(F)c2)C1O (stereo not shown) [Example 1109] | 8 nM

Now from value to compound:

Row | IC50 | Structure (SMILES)
42 | 8 nM | CCCCC1(CCCC)CS(=O)(=O)c2ccc(N(C)C)cc2C(c2cccc(OCCOCCOCC[n+]3ccc(N4CCCC4)cc3)c2)C1O (stereo not shown) [Example 1110]
43 | 8 nM | CCCCC1(CCCC)CS(=O)(=O)c2ccc(N(C)C)cc2C(c2ccc(OCCC[n+]3ccc(CCC(=O)O)cc3)c(F)c2)C1O (stereo not shown) [Example 1111]
44 | 8 nM | CCCCC1(CCCC)CS(=O)(=O)c2ccc(N(C)C)cc2C(c2ccncc2)C1O (stereo not shown) [Example 1112]
45 | 9 nM | CCCCC1(CCCC)CS(=O)(=O)c2ccc(N(C)C)cc2C(c2ccc(OCc3ccncc3)c(F)c2)C1O (stereo not shown) [Example 1113]
46 | 9 nM | CCCCC1(CCCC)CS(=O)(=O)c2ccc(NC)cc2C(c2cccc(OC)c2)C1O (stereo not shown) [Example 1114]
47 | 9.8 nM | CCCCC1(CCCC)CS(=O)(=O)c2ccc(N(C)C)cc2C(c2ccc(F)cc2)C1O (stereo not shown) [Example 1115]
48 | 10 nM | CCCCC1(CC)CS(=O)(=O)c2ccc(N(C)C)cc2C(c2cccc(OCCOCCOCC[N+](C)(C)C)c2)C1O (stereo not shown) [Example 1117]
49 | 10 nM | CCCCC1(CC)CS(=O)(=O)c2ccc(N(C)C)cc2C(c2ccc(O)c(F)c2)C1O (stereo not shown) [Example 1118]
50 | 10 nM | CCCCC1(CCCC)CS(=O)(=O)c2ccc(N(C)C)cc2C(c2cccc(OCCOCCOCC[n+]3ccc(-c4ccccc4)cc3)c2)C1O (stereo not shown) [Example 1119]
51 | 10 nM | CCCCC1(CCCC)CS(=O)(=O)c2ccc(N(C)C)cc2C(c2cccc(OCCOCCOCC[N+](CC)(CC)CC(OCC)OCC)c2)C1O (stereo not shown) [Example 1120]
52 | 10 nM | CCCCC1(CCCC)CS(=O)(=O)c2ccc(N(C)C)cc2C(c2cccc(OCCOCCOCC[n+]3ccc(C4CC=CCC4)cc3)c2)C1O (stereo not shown) [Example 1121]
53 | 11 nM | CCCCC1(CCCC)CS(=O)(=O)c2ccc(N(C)C)cc2C(c2ccc(OCCOCC[N+](CC)(CC)CCN(CC)CC)c(F)c2)C1O (stereo not shown) [Example 1122]
54 | 11 nM | CCCCC1(CCCC)CS(=O)(=O)c2ccc(N(C)C)cc2C(c2ccccc2)C1O (stereo not shown) [Example 1123]
55 | 11 nM | CCCCC1(CCCC)CS(=O)(=O)c2ccc(N(C)C)cc2C(c2cccc(OC)c2)C1O (stereo not shown) [Example 1124]
56 | 12 nM | CCCCC1(CCCC)CS(=O)(=O)c2ccc(N(C)C)cc2C(c2ccc(OC)c(Cl)c2)C1O (stereo not shown) [Example 1125]
57 | 13 nM | CCCCC1(CC)CS(=O)(=O)c2ccc(N(C)C)cc2C(c2cccc(OCCOCCOCCI)c2)C1O (stereo not shown) [Example 1126]
58 | 13 nM | CCCCC1(CCCC)CS(=O)(=O)c2ccc(N(C)C)cc2C(c2cccc(OCCOCCOCC[n+]3ccc(CCC)cc3)c2)C1O (stereo not shown) [Example 1127]
59 | 17 nM | CCCCC1(CCCC)CS(=O)(=O)c2ccc(N(C)C)cc2C(c2ccc(O)c(F)c2)C1O (stereo not shown) [Example 1128]
60 | 18 nM | CCCCC1(CCCC)CS(=O)(=O)c2c(cccc2N(C)C)C(c2ccc(F)cc2)C1O (stereo not shown) [Example 1129]
61 | 18 nM | CCCCC1(CCCC)CS(=O)(=O)c2ccc(N(C)C)cc2C(c2ccc(F)c(Cl)c2)C1O (stereo not shown) [Example 1130]
